Results taken from paper PMC6270814, “Effects of Ursolic Acid Derivatives on Caco-2 Cells and Their Alleviating Role in Streptozocin-Induced Type 2 Diabetic Rats” (Molecules, 2014).

Experiments:
[1] = MTT cytotoxicity assay on Caco-2 cells; assay type: cell-based, Human; settings: human
Method: (§1) Human intestinal Caco-2 cells (ATCC, Rockville, MD, USA) were incubated at 37 °C in a humidified atmosphere of 5% CO2 in air. The cells were cultured in Dulbecco’s […] medium (DMEM) with 10% heat-inactivated fetal bovine serum, 1% non-essential amino acids, 1% L-glutamine, 1% penicillin/streptomycin (Gibco Life Technologies, Grand Island, NY, USA). The cells were sub-cultured at confluence by 0.05% trypsin-0.5 mM EDTA treatment before they were applied in the experiment.
(§2) A MTT test was conducted to determine the possible toxicity of UA and its derivatives to Caco-2 cells. Briefly, cells were seeded at a density of 1 × 10^4 cells/mL in a 96-well plate and incubated for 24 h. The next day, cells were incubated with vehicle (0.1% DMSO) and compounds at 100, 50, 25, 12.5 μmol/L for 24 h, and then 5 g/L MTT solution (20 μL) was added for 4 h. Absorbance at 570 nm was measured using a Multimodel Plate Reader (Infinite 200, Tecan, Mannedorf, Switzerland).

Caco-2 cells [2] = test: MTT cytotoxicity assay on Caco-2 cells; assay type: cell-based, Human; settings: Homo sapiens, 24 h, mean ± SD, n = 4, read-out: Inhibition Rate %
Method: as §1, §2

Caco-2 cells [3] = test: 2-NBDG glucose uptake by Caco-2 cell monolayers, Na+-independent (sodium free buffer); assay type: cell-based, Human; settings: 100 μM compound, Na+-independent (KCl/K2HPO4 buffer)
Method: Caco-2 cells, which were derived from human colon adenocarcinoma, were selected for intestinal absorption studies because these cells express the morphological characteristics and most of the functional properties of differentiated small-intestinal enterocytes. Caco-2 cells were seeded on 24-well plates at the density of 2 × 10^5 cells/well. The medium was changed every 1–2 days, and the culture was carried out for 13 days. Then Caco-2 cells were placed in serum-free media for 24 h and then they were washed twice with Hanks’ balanced salt solution (HBSS, pH 7.5, 140 mM NaCl, 5 mM KCl, 1.2 mM Na2HPO4, 2 mM CaCl2, 1.2 mM MgSO4, 20 mM HEPES, 0.2% bovine serum albumin) before the uptake studies. When a sodium free buffer was required, NaCl and Na2HPO4 were replaced with equal amounts of KCl and K2HPO4, respectively. After washing, the cells were incubated for 15 min at room temperature in HBSS before the commencement of this experiment. The uptake studies were initiated by adding HBSS containing either control or test solution (100 μM) and […] (100 μM) for 30 min at 37 °C. Glucose uptake was stopped by adding twofold volume of ice-cold PBS and the wells were washed with ice-cold PBS three times. Fluorescent intensity was measured by a Multimodel Plate Reader (Tecan Infinity 200) with the 485 nmex and 535 nmemiss filter set before and after adding 2-NBDG. Then the cells were lysed in 200 μL lysis buffer (10 mM Tris-HCl pH = 7.4, 150 mM NaCl, 1% Triton-x-100, 1 mM EDTA, 0.1% SDS) and supplemented immediately before they were processed with 10 μg/mL PMSF. Cells were allowed to lyse on ice, and then vortexed and sonicated. The lysate was used for protein determination, protein concentrations were determined as described by BCA kit (Boster, Wuhan, China) with bovine serum albumin as standard.

GLUT-2 = test: Western blot of GLUT-2 protein expression in Caco-2 cells; assay type: cell-based, Human; settings: 100 μM, 6 h
Method: Caco-2 cells were cultured on 6-well plates at a density of 1 × 10^6 cells/well for 13 days. The cells were placed in serum-free medium for 24 h prior to the treatment. Then UA and its derivatives (100 μM) were added, after 6 h incubation, the cells were immediately washed three times with ice-cold PBS and lysed in 200 μL lysis buffer. Cells were allowed to lyse on ice, and then scraped, vortexed, sonicated and stored at −80 °C for further analysis. Protein concentrations were determined as described and cell lysate was subjected to western blot analysis. Briefly, proteins with same amount were denatured in sample buffer, separated on 8% SDS-PAGE gel, and transferred onto a polyvinylidene diflouride membrane. The membranes were blocked for 1 h at 37 °C with 10% defatted milk in Tris-buffered saline (10 mM Tris-HCl, pH 7.5 and 137 mM NaCl) containing 0.05% Tween 20 (TBST). Membranes were then incubated overnight at 4 °C in blocking buffer with antibodies for GLUT-2, SGLT-1 and β-actin (EMD, Millipore, Billerica, MA, USA). Membranes were washed with TBST and incubated 1 h with appropriate secondary antibodies. Revelation was performed by using the enhanced chemiluminescence reagent and blue-light sensitive film. Densitometric analysis of films was performed with a Hewlett-Packard scanner equipped with a transparent adaptor and UN-SCAN-IT software.

[4] = test system: STZ-induced diabetic rats; test: Fasting blood glucose in STZ-induced diabetic rats, 4 weeks treatment; assay type: in vivo, rat; settings: STZ diabetic rats
Method: Adult male albino rats of Sprague-Dawley rats (180–220 g) were obtained from the Guangdong Medical Lab Animal Center, and maintained under standard laboratory conditions in a temperature (25–30 °C) and light-controlled (12-h light/dark cycle) room with 35%–60% humidity. The animals were acclimatized for 10 days before the experiments and provided with rodent chow and water ad libitum. The investigation was conducted in accordance with the Guide for the Care and Use of Laboratory Animals and approved by the institutional Animal Ethics Committee.
(§3) Diabetes was induced by a single intraperitoneal injection of streptozotocin (Sigma-Aldrich, St. Louis, MO, USA) at a dose of 65 mg/kg body weight. STZ was dissolved in 0.1 M cold citrate buffer, pH 4.5. Control group were injected with citrate buffer alone. After 7 days for the development of diabetes, plasma glucose levels were determined of each rat. Rats with fasting blood glucose (FBG) range of above 16.7 mmol/L were considered as DM rats and were used for further study.
(§4) According to the body weight and plasma glucose levels the rats were divided randomly into seven groups with six rats each and treated as follows: • Group I: Normal rats treated with 0.5% CMC-Na (2 mL/200 g body weight). • Group II: Diabetic rats treated with 0.5% CMC-Na. • Group III: Diabetic rats treated with 10 mg/kg of glibenclamide. • Group IV: Diabetic rats treated with 100 mg/kg of compound 1 (UA). • Group V: Diabetic rats treated with 100 mg/kg of compound 10. • Group VI: Diabetic rats treated with 100 mg/kg of compound 11. • Group VII: Diabetic rats treated with 100 mg/kg of compound 12.
(§5) The treatment was continued daily for 28 days. Blood glucose levels and body weight were measured every week to ascertain the status of diabetes. After 4 weeks of treatment, the animals were fasted for 12 h and sacrificed by cervical dislocation under mild anaesthetization, blood was collected into heparinized tubes and centrifuged at 2,000 rpm for 10 min. Livers and kidneys were removed, washed and homogenized in ice-cold normal saline. This homogenates were centrifuged at 3,000 rpm for 10 min at 4 °C, and the supernatants were collected for the estimate of antioxidant markers.
(§6) Fasting blood glucose levels were estimated on days 0, 7, 14, 28 with the single touch glucometer (Life Scan, Johnson & Johnson Company, New Brunswick, NJ, USA). Serum insulin level was measured by use of a commercial immunoassay kit by enzyme linked immunosorbent assay (Uscn. Life Science Inc., Wuhan, China). Serum total protein, albumin, triglycerides (TG), total cholesterol (TC), high-density lipoprotein cholesterol (HDL-C), and low-density lipoprotein cholesterol (LDL-C) were measured with an automatic biochemical analyzer (Sinnowa D240, Nanjing, China).

[5] = test system: STZ-induced diabetic rats; test: Serum biochemical parameters (insulin, total protein, albumin) in STZ-induced diabetic rats; assay type: in vivo, rat; settings: 4 weeks, compounds 100 mg/kg, glibenclamide 10 mg/kg
Method: as §3, §4, §5, §6

[6] = test system: STZ-induced diabetic rats; test: Body weight and daily food intake of STZ-induced diabetic rats; assay type: in vivo, rat; settings: compounds 100 mg/kg, glibenclamide 10 mg/kg, oral
Method: as §3, §4, §5

[7] = test system: STZ-induced diabetic rats; test: Serum lipid profile (TG, TC, LDL-C, HDL-C) in STZ-induced diabetic rats; assay type: in vivo, rat; settings: 4 weeks, compounds 100 mg/kg, glibenclamide 10 mg/kg
Method: as §3, §4, §5, §6

[8] = test system: STZ-induced diabetic rats; test: Oxidative stress markers (GSH, SOD, MDA) in liver and kidney of STZ-induced diabetic rats; assay type: in vivo, rat; settings: 4 weeks
Method: as §3, §4, §5
The tissue homogenates of liver and kidney were used for the estimate of antioxidant markers. Glutathione (GSH) level was measured with 5, 5'-dithiobis-(2-nitrobenzoic acid) (DTNB) as described by Sedlak and Lindsay. Superoxide dismutase (SOD) activity was assessed according to the method of Sinha. Malondialdehyde (MDA) activity was estimated with the thiobarbituric acid method.

SMILES	viability at 24 h, 100 µM [1] [%]	inhibition at 100 µM (Caco-2 cells [2]) [%]	glucose uptake, % of the control value (Na+-independent) (Caco-2 cells [3])	effect on expression of protein GLUT-2 (GLUT-2)	effect on lowering fasting blood glucose levels ([4]; 100 mg/kg, 4 weeks)	Fasting Blood Glucose Level, Week 0 ([4]; Week 0 (before treatment), compounds 100 mg/kg, glibenclamide 10 mg/kg, n = 6) [mg/dL]	Fasting Blood Glucose Level, Week 1 ([4]; Week 1, compounds 100 mg/kg, glibenclamide 10 mg/kg daily, n = 6) [mg/dL]	Fasting Blood Glucose Level, Week 2 ([4]; Week 2, compounds 100 mg/kg, glibenclamide 10 mg/kg daily, n = 6) [mg/dL]	Fasting Blood Glucose Level, Week 3 ([4]; Week 3, compounds 100 mg/kg, glibenclamide 10 mg/kg daily, n = 6) [mg/dL]	Fasting Blood Glucose Level, Week 4 ([4]; Week 4, compounds 100 mg/kg, glibenclamide 10 mg/kg daily, n = 6) [mg/dL]	serum albumin level vs diabetic control [5]	serum insulin level vs diabetic control [5]	serum total protein level vs diabetic control [5]	daily food intake vs untreated diabetic rats [6]	serum TC level vs diabetic control [7]	serum TG level vs diabetic control [7]	GSH level in kidney ([8]; kidney of STZ diabetic rats)	SOD level in the liver and kidney ([8]; liver and kidney of STZ diabetic rats)
CC(=O)O[C@H]1CC[C@@]2(C)C(CC[C@]3(C)C2CC=C2C4[C@@H](C)[C@H](C)CC[C@]4(C(=O)Nc4ccccc4F)CC[C@]23C)C1(C)C (stereo partly shown) [Compound 6]	86.1	13.9 ± 4.52																
CCCC(=O)O[C@H]1CC[C@@]2(C)C(CC[C@]3(C)C2CC=C2C4[C@@H](C)[C@H](C)CC[C@]4(C(=O)O)CC[C@]23C)C1(C)C (stereo partly shown) [Compound 11]		2.29 ± 6.08	74 % of the control value	significant effects on reducing	no significant effect	318.60 ± 17.64	365.40 ± 20.34	352.80 ± 27.36	324.00 ± 23.04	351.00 ± 26.64	no appreciable improvement	non-significant effect	no appreciable improvement	reduce daily food intake significantly	significantly decreased	significantly decreased	great effect	great improvement
